PMC9095880, “AIMP2-DX2 provides therapeutic interface to control KRAS-driven tumorigenesis” (Nature Communications, 2022)

Target: T1, AIMP2 (Homo sapiens, UniProt Q13155)
T1 construct: purified AIMP2, in vitro pull-down
T1 sequence (Q13155 1-320): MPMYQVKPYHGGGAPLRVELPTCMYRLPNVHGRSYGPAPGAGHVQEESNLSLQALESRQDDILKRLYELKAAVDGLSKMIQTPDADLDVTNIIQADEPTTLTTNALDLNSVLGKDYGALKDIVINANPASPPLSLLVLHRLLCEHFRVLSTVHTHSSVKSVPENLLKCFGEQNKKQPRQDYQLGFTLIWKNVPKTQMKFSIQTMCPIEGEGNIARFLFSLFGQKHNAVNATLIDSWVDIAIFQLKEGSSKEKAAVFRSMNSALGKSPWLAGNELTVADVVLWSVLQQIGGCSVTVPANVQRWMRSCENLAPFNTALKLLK
Assay: in vitro pull-down with purified AIMP2
Conditions: no binding to cellular AIMP2 in immunoprecipitation

## COc1ccc(-c2ccc(CN(C(=O)c3cnc4ccccc4n3)c3ccccc3F)s2)cc1C [BC-DXI-32982]
  in vitro pull-down with purified AIMP2: DXI showed binding to the purified AIMP2 in an in vitro pull-down assay
